The source of these data is patent publication US9896441B2 (Lycera Corporation, priority 2014, dated 2018).

One experiment concerns the target T1, RORγ-LBD (Homo sapiens, UniProt P51449).
T1 construct: made in house; host or cells: SF9 cells (baculovirus); used as diluted lysate
T1 sequence (P51449 269-508 limits assumed): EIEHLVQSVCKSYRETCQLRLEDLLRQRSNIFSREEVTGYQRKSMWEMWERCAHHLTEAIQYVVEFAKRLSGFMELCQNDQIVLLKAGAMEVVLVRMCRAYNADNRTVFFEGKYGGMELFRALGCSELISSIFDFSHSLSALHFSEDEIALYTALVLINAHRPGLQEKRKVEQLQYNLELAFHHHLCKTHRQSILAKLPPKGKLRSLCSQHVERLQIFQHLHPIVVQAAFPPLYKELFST
The experiment is described as follows: RORγ-Ligand Binding Domain (LBD) TR-FRET Assay.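 On TR-FRET Assay Max Response: 665/615 nm signal ratio set to 100 without ursolic acid or test compound.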 The experiment is classed as biochemical. The note with it: for TR-FRET Assay Max Response: maximum response. The method in brief: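 Compounds, diluted in DMSO and then in assay buffer (1% DMSO final), were combined with His-tagged RORγ-LBD lysate at roughly 3 nM final and a 200 nM biotinylated SRC1 LXXLL peptide. Ursolic acid was included at 2 μM final. Coactivator recruitment was detected by TR-FRET.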
(In general: TR-FRET usually uses a lanthanide donor and a delayed reading to cut background.)

The next experiment concerns the target T2, Gal4-RORγ-LBD (Homo sapiens, UniProt P51449).
T2 construct: expressed in transfected cells
T2 sequence (P51449 269-508 limits assumed): T1 sequence (P51449 269-508 limits assumed)
Description: Gal4-RORγ Luciferase Reporter Assay in HEK-293T Cells. The note with it: HEK-293 cells; for Gal4-RORγ Assay Max Response: maximum response. The class given is cell-based. The method in brief:
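Max Response was taken as the upper plateau of a 4-parameter logistic fit of luciferase signal, normalized to 100 for wells without ursolic acid or compound. Transiently Gal4-RORγ-LBD/Gal4-luc transfected HEK-293 cells carrying […] ursolic acid were incubated with test compounds (0.2% DMSO) overnight at 37 °C and read with One-Glo.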

Where [1] appears, read: luciferase reporter, with ursolic acid.
Setting [2] is: luciferase reporter, in presence of ursolic acid.

A value given as a limit tells only on which side of the number the result lay.

In general, EC50 refers to the midpoint of the concentration-response curve. Take `O=C(O)CC[C@H]1CN(S(=O)(=O)c2cc(C(F)(F)F)cnc2OCC(O)CO)c2cc(/C=C/c3c(F)cccc3Cl)ccc2O1` (stereo partly drawn) [Example 89FJ, 3-((2S)-6-((E)-2-chloro-6-fluorostyryl)-4-((2-(2,3-dihydroxypropoxy)-5-(trifluoromethyl)pyridin-3-yl)sulfonyl)-3,4-dihydro-2H-benzo[b][1,4]oxazin-2-yl)propanoic acid]: the 50% effective concentration (EC50) on RORγ-LBD (RORγ-LBD TR-FRET) was less than 500 nM; at Gal4-RORγ-LBD (setting [1]), 500 to 5000 nM.
`O=C(O)CC[C@H]1CN(S(=O)(=O)c2cc(Cl)cnc2OCCO)c2cc(/C=C/c3c(F)cccc3Cl)ccc2O1` [Example 89AL, (S,E)-3-(4-((5-chloro-2-(2-hydroxyethoxy)pyridin-3-yl)sulfonyl)-6-(2-chloro-6-fluorostyryl)-3,4-dihydro-2H-benzo[b][1,4]oxazin-2-yl)propanoic acid]: the EC50 at RORγ-LBD (RORγ-LBD TR-FRET) was less than 500 nM; on Gal4-RORγ-LBD (setting [1]), 500 to 5000 nM.
`C/C(=C\c1ccc2c(c1C)N(S(=O)(=O)c1cccc(C(F)(F)F)c1)C[C@H](CCC(=O)O)O2)c1c(F)cccc1Cl` [Example 58, (S,E)-3-(6-(2-(2-Chloro-6-fluorophenyl)prop-1-en-1-yl)-5-methyl-4-((3-(trifluoromethyl)phenyl)sulfonyl)-3,4-dihydro-2H-benzo[b][1,4]oxazin-2-yl)propanoic acid]: the EC50 at RORγ-LBD (RORγ-LBD TR-FRET) was less than 500 nM; on Gal4-RORγ-LBD (setting [1]) it was 500 to 5000 nM.
Regarding `C/C(=C\c1ccc2c(c1)N(S(=O)(=O)c1cccc(C(F)(F)F)c1)C[C@H](CCC(=O)N1CC(C)(C(=O)O)C1)O2)c1c(F)cccc1Cl` [Example 129I, (S,E)-1-(3-(6-(2-(2-chloro-6-fluorophenyl)-prop-1-en-1-yl)-4-((3-(trifluoromethyl)phenyl)sulfonyl)-3,4-dihydro-2H-benzo[b][1,4]oxazin-2-yl)propanoyl)-3-methylazetidine-3-carboxylic acid], at RORγ-LBD (RORγ-LBD TR-FRET assay), the EC50 is less than 500 nM and the “TR-FRET Assay Max Response” value is on record as “*** (a value in the range of greater than 150 to 200)”. In addition, at Gal4-RORγ-LBD (setting [2]), the concentration giving a half-maximal response (EC50) is less than 500 nM and the “Gal4-RORγ Assay Max Response” value was “** (a value in the range of greater than 90 to 150)”.
On to `O=C(O)CC[C@H]1CN(S(=O)(=O)c2cc(C(F)(F)F)cnc2OCCO)c2cc(/C=C3\CC4CCC3C4)ccc2O1` (stereo partly drawn) [Example 95T, 3-((2S)-6-((E)-bicyclo[2.2.1]heptan-2-ylidenemethyl)-4-((2-(2-hydroxyethoxy)-5-(trifluoromethyl)pyridin-3-yl)sulfonyl)-3,4-dihydro-2H-benzo[b][1,4]oxazin-2-yl)propanoic acid], for which the EC50 on RORγ-LBD (RORγ-LBD TR-FRET) was less than 500 nM; on Gal4-RORγ-LBD (setting [1]), 500 to 5000 nM.
With `C/C(=C\c1ccc2c(c1)N(S(=O)(=O)c1cccc(C(F)(F)F)c1)C[C@H]([C@@H](C)N)O2)c1c(F)cccc1Cl` [Example 100, (R)-1-((R)-6-((E)-2-(2-Chloro-6-fluorophenyl)prop-1-en-1-yl)-4-((3-(trifluoromethyl)phenyl)sulfonyl)-3,4-dihydro-2H-benzo[b][1,4]oxazin-2-yl)ethan-1-amine], the EC50 on RORγ-LBD (RORγ-LBD TR-FRET) was less than 500 nM; on Gal4-RORγ-LBD (setting [1]), 500 to 5000 nM.
The matching figures for `CCOC(=O)[C@@H]1Cc2ccc(OC3CCc4ccccc43)cc2N(S(=O)(=O)c2ccc(F)c(OC)c2)[C@@H]1C` (mixture of isomers) [Example 20, (2R,3R)-Ethyl 7-((2,3-dihydro-1H-inden-1-yl)oxy)-1-((4-fluoro-3-methoxyphenyl)sulfonyl)-2-methyl-1,2,3,4-tetrahydroquinoline-3-carboxylate]: less than 500 nM and less than 500 nM.
`C/C(=C\c1ccc2c(c1)N(S(=O)(=O)c1cccc(C(F)(F)F)c1)C[C@H](NC(=O)C(C)(C)O)C2)c1c(F)cccc1Cl` [Example 116F, (R,E)-N-(7-(2-(2-chloro-6-fluorophenyl)prop-1-en-1-yl)-1-((3-(trifluoromethyl)-phenyl)sulfonyl)-1,2,3,4-tetrahydroquinolin-3-yl)-2-hydroxy-2-methylpropanamide]: at RORγ-LBD (RORγ-LBD TR-FRET assay), the EC50 was less than 500 nM and the “TR-FRET Assay Max Response” value is reported as “*** (a value in the range of greater than 150 to 200)”. On Gal4-RORγ-LBD (setting [2]), the EC50 was 500 to 5000 nM and the “Gal4-RORγ Assay Max Response” value is reported as “* (a value in the range of 30 to 90)”.
In the case of `CC1CCC/C(=C\c2ccc3c(c2)N(S(=O)(=O)c2cccc(C(F)(F)F)c2)C[C@H](CCC(=O)O)O3)C1` (stereo partly drawn) [Example 95G, 3-((2S)-6-((E)-(3-methylcyclo-hexylidene)methyl)-4-((3-(trifluoromethyl)phenyl)sulfonyl)-3,4-dihydro-2H-benzo[b][1,4]-oxazin-2-yl)propanoic acid], the 50% effective concentration (EC50) was less than 500 nM at RORγ-LBD (RORγ-LBD TR-FRET) and 500 to 5000 nM on Gal4-RORγ-LBD (setting [1]).
The matching figures for `CCOc1nn(CC)cc1S(=O)(=O)N1C[C@H](CCC(=O)O)Oc2ccc(/C=C/c3ccsc3)cc21` [Example 89K, (S,E)-3-(4-((3-ethoxy-1-ethyl-1H-pyrazol-4-yl)sulfonyl)-6-(2-(thiophen-3-yl)vinyl)-3,4-dihydro-2H-benzo[b][1,4]oxazin-2-yl)propanoic acid]: less than 500 nM and 500 to 5000 nM.
For `CCOC(=O)C1CCN(CC[C@H]2CN(S(=O)(=O)c3cccc(C(F)(F)F)c3)c3cc(/C=C(\C)c4c(F)cccc4Cl)ccc3O2)CC1` [Example 119F, ethyl (S,E)-1-(2-(6-(2-(2-chloro-6-fluorophenyl)prop-1-en-1-yl)-4-((3-(trifluoromethyl)phenyl)sulfonyl)-3,4-dihydro-2H-benzo[b][1,4]oxazin-2-yl)ethyl)piperidine-4-carboxylate], the EC50 on RORγ-LBD (RORγ-LBD TR-FRET assay) was less than 500 nM; on Gal4-RORγ-LBD (setting [2]) it was greater than 10000 nM. Further, the “TR-FRET Assay Max Response” value at RORγ-LBD (RORγ-LBD TR-FRET assay) was “*** (a value in the range of greater than 150 to 200)”.
Take `O=C(O)CC[C@H]1CN(S(=O)(=O)c2cccc(C(F)(F)F)c2)c2cc(CC3CCCCC3)ccc2O1` [Example 93, (S)-3-(6-(Cyclohexylmethyl)-4-((3-(trifluoromethyl)phenyl)sulfonyl)-3,4-dihydro-2H-benzo[b][1,4]oxazin-2-yl)propanoic acid]: the EC50 at RORγ-LBD (RORγ-LBD TR-FRET) is less than 500 nM; on Gal4-RORγ-LBD (setting [1]) it was 500 to 5000 nM.
With `O=C(O)C1Cc2ccc(OCc3c(F)cccc3Cl)cc2N(S(=O)(=O)c2cccc(C(F)(F)F)c2)C1` (stereo not shown), the 50% effective concentration (EC50) at RORγ-LBD (with 2 μM ursolic acid (RORγ antagonist), highest test concentration 10 μM) is less than 500 nM; at Gal4-RORγ-LBD (ursolic acid present, luciferase readout), 500 to 5000 nM.
For the molecule `COC(=O)C(C)(C)C[C@@H]1Cc2ccc(/C=C/c3c(F)cccc3Cl)cc2N(S(=O)(=O)c2ccc(F)c(OC)c2)C1` [Example 153, Methyl (S,E)-3-(7-(2-chloro-6-fluorostyryl)-1-((4-fluoro-3-methoxyphenyl)sulfonyl)-1,2,3,4-tetrahydroquinolin-3-yl)-2,2-dimethylpropanoate], at RORγ-LBD (RORγ-LBD TR-FRET assay), the concentration giving a half-maximal response (EC50) was less than 500 nM and the “TR-FRET Assay Max Response” value is listed as “*** (a value in the range of greater than 150 to 200)”. Moreover, on Gal4-RORγ-LBD (setting [2]), the EC50 is greater than 10000 nM and the “Gal4-RORγ Assay Max Response” value is recorded as “* (a value in the range of 30 to 90)”.
Take `O=C(O)CC[C@H]1CN(S(=O)(=O)c2cccc(C(F)(F)F)c2)c2cc(/C=C3\CCCc4ccccc43)ccc2O1` [Example 37, (S,E)-3-(6-((3,4-Dihydronaphthalen-1(2H)-ylidene)methyl)-4-((3-(trifluoromethyl)phenyl)sulfonyl)-3,4-dihydro-2H-benzo[b][1,4]oxazin-2-yl)propanoic acid]: the 50% effective concentration (EC50) on RORγ-LBD (RORγ-LBD TR-FRET) and at Gal4-RORγ-LBD (setting [1]) was less than 500 nM in each case.
